Drawing on patent US8759520B2, “Compounds for treating cancer” (Boehringer Ingelheim International GmbH, priority 2008, dated 2014), this text covers IC50 for 31 compounds.

This assay addresses Bcl-2 (Homo sapiens, UniProt P10415). Put plainly: Homogeneous HTS assay for inhibitors of the Bcl-2 : Bak (72-87) BH3 domain interaction, fluorescence polarisation (2D-FIDA). The format is binding. The settings on record: fluorescence polarisation, fluorescent labelled Bak BH3 domain derived peptide; read-out: IC50 [μM] Bcl-2. The source says: FIG. 1 is a schematic drawing of the Bcl-2: Bak (72-87) interaction assay based on fluorescence polarisation.
The homogeneous HTS assay for inhibitors of the Bcl-2 is shown schematically in FIG. 1. BH3 domain interaction is based on fluorescence polarisation. The inherent rotational diffusion of the Bak BH3 domain derived fluorescent labelled peptide decreases upon binding to Bc1-2. This shift in rotational diffusion is quantitated using the two-dimensional fluorescence intensity distribution analysis (2D-FIDA; Kask et al. 2000, Biophys. J. 78: 1703-1713).
Two different BH3 domain derived peptide ligands were synthesised and subsequently fluorescently labelled: • a 16mer peptide covering amino acids 72-87 of the Bak protein; this peptide had been used by Wang and co-workers and Holinger and coworkers in their Bcl-2 protein binding studies; Wang and co-workers reported an equilibrium binding constant KD of ˜0.2 μM to Bcl-2 protein; • peptide sequence: GQVGRQLAIIGDDINR—N (Wang et al. 2002, Proc. Natl. Acad. Sci. U.S.A. 97: 7124-7129; Holinger et al. 1999, J. Biol. Chem. 274: 13298-13304).
(In general: Fluorescence polarisation rises when a labelled molecule tumbles more slowly, as on binding a larger partner.)

Chain of Bcl-2 (P10415 whole entry, species assumed, the tested form may be a part): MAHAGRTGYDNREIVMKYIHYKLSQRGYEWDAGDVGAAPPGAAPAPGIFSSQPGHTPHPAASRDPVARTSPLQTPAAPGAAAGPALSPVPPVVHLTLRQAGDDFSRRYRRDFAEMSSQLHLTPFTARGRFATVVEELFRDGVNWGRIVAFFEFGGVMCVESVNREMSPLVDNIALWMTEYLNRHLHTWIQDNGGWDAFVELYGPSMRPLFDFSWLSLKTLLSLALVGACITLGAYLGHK

As a reminder, the IC50 is the concentration at which inhibition is half-maximal. For the compound `Cc1ccc(OCC(O)Cn2c(=N)n(Cc3ccccc3)c3ccccc32)cc1` (stereo not shown) [Compound 99, 1-(3-Benzyl-2-imino-2,3-dihydro-benzoimidazol-1-yl)-3-p-tolyloxy-propan-2-ol], the IC50 was in the range of 11 to 100 µM. The same measure for `CCOC(=O)c1cccc(OCCCn2c(=N)n(Cc3ccc(N4CCN(Cc5ccccc5-c5ccccc5)CC4)cc3)c3ccccc32)c1` [Compound 69, 3-(3-{3-[4-(4-Biphenyl-2-ylmethyl-piperazin-1-yl)-benzyl]-2-imino-2,3-dihydro-benzoimidazol-1-yl}-propoxy)-benzoic acid ethyl ester]: below 10 µM.

For `N=c1n(CCCOc2ccc(F)cc2)c2ccccc2n1Cc1ccc(Br)cc1` [Compound 5, 1-(4-Bromo-benzyl)-3-[3-(4-fluoro-phenoxy)-propyl]-1,3-dihydro-benzoimidazol-2-ylideneamine], the IC50 was below 10 µM. The same measure for `COC(=O)c1ccc(OCCCn2c(=N)n(Cc3cccc(Br)c3)c3ccccc32)cc1` [Compound 67, 4-{3-[3-(3-Bromo-benzyl)-2-imino-2,3-dihydro-benzoimidazol-1-yl]-propoxy}-benzoic acid methyl ester]: 11 to 100 µM; for `N=c1n(Cc2ccccc2)c2ccccc2n1CC(O)COc1ccc(Cl)cc1` (stereo not shown) [Compound 80, 1-(3-Benzyl-2-imino-2,3-dihydro-benzoimidazol-1-yl)-3-(4-chloro-phenoxy)-propan-2-ol]: 11 to 100 µM. The same measure for `CCOC(=O)Cn1c(=N)n(CCCOc2ccc(F)cc2)c2ccccc21` [Compound 8, {3-[3-(4-Fluoro-phenoxy)-propyl]-2-imino-2,3-dihydro-benzoimidazol-1-yl}-acetic acid ethyl ester]: 11 to 100 µM. The value for `Cc1ccccc1OCC(O)Cn1c(=N)n(Cc2ccccc2)c2ccccc21` (stereo not shown) [Compound 79, 1-(3-Benzyl-2-imino-2,3-dihydro-benzoimidazol-1-yl)-3-o-tolyloxy-propan-2-ol] was 11 to 100 µM; that for `N=c1n(CCCOc2ccc(F)cc2)c2ccccc2n1Cc1cccc(C(=O)O)c1` [Compound 72, 3-{3-[3-(4-Fluoro-phenoxy)-propyl]-2-imino-2,3-dihydro-benzoimidazol-1-ylmethyl}-benzoic acid] was 11 to 100 µM; that for `N=c1n(CCCOc2ccc(Cl)cc2)c2ccccc2n1Cc1ccncc1` [Compound 9, 1-[3-(4-Chloro-phenoxy)-propyl]-3-pyridin-4-ylmethyl-1,3-dihydro-benzoimidazol-2-ylideneamine] was above 100 µM. In the case of `N=c1n(CCCOc2ccccc2)c2ccccc2n1Cc1ccccc1F` [Compound 96, 1-(2-Fluoro-benzyl)-3-(3-phenoxy-propyl)-1,3-dihydro-benzoimidazol-2-ylideneamine], the IC50 was 11 to 100 µM. The same measure for `N=c1n(Cc2ccc(Cl)cc2)c2ccccc2n1CC(O)COc1ccccc1` (stereo not shown) [Compound 103, 1-[3-(4-Chloro-benzyl)-2-imino-2,3-dihydro-benzoimidazol-1-yl]-3-phenoxy-propan-2-ol]: 11 to 100 µM. The value for `COc1ccc(OCC(O)Cn2c(=N)n(Cc3ccccc3)c3ccccc32)cc1` (stereo not shown) [Compound 88, 1-(3-Benzyl-2-imino-2,3-dihydro-benzoimidazol-1-yl)-3-(4-methoxy-phenoxy)-propan-2-ol] was 11 to 100 µM; that for `N=c1n(CCCOc2ccc(F)cc2)c2ccccc2n1Cc1csc(N2CCN(Cc3ccccc3-c3ccccc3)CC2)n1` [Compound 35, 1-[2-(4-Biphenyl-2-ylmethyl-piperazin-1-yl)-thiazol-4-ylmethyl]-3-[3-(4-fluoro-phenoxy)-propyl]-1,3-dihydro-benzoimidazol-2-ylideneamine] was below 10 µM; that for `N=c1n(CCCOc2ccc(F)cc2)c2ccccc2n1Cc1ccccc1` [Compound 97, 1-Benzyl-3-[3-(4-fluoro-phenoxy)-propyl]-1,3-dihydro-benzoimidazol-2-ylideneamine] was 11 to 100 µM. For `CC1(C)CCC(c2ccc(Cl)cc2)=C(CN2CCN(c3cccc(Cn4c(=N)n(CCCOc5cccc(C(=O)O)c5)c5ccccc54)c3)CC2)C1` [Compound 75, 3-{3-[3-(3-{4-[2-(4-Chloro-phenyl)-5,5-dimethyl-cyclohex-1-enylmethyl]-piperazin-1-yl}-benzyl)-2-imino-2,3-dihydro-benzoimidazol-1-yl]-propoxy}-benzoic acid], the IC50 is below 10 µM.

As to `CCCCn1c(=N)n(CC(O)COc2ccccc2OC)c2ccccc21` (stereo not shown) [Compound 93, 1-(3-Butyl-2-imino-2,3-dihydro-benzoimidazol-1-yl)-3-(2-methoxy-phenoxy)-propan-2-ol], the IC50 is above 100 µM. The same measure for `N=c1n(CCCOc2ccc(F)cc2)c2ccccc2n1Cc1ccc(CN2CCN(Cc3ccccc3-c3ccccc3)CC2)cc1` [Compound 49, 1-[4-(4-Biphenyl-2-ylmethyl-piperazin-1-ylmethyl)-benzyl]-3-[3-(4-fluoro-phenoxy)-propyl]-1,3-dihydro-benzoimidazol-2-ylideneamine]: 11 to 100 µM.

Turning to `N=c1n(CCCOc2ccc(F)cc2)c2ccccc2n1Cc1ccccc1N1CCN(Cc2ccccc2-c2ccccc2)CC1` [Compound 38, 1-[2-(4-Biphenyl-2-ylmethyl-piperazin-1-yl)-benzyl]-3-[3-(4-fluoro-phenoxy)-propyl]-1,3-dihydro-benzoimidazol-2-ylideneamine], the IC50 was below 10 µM. The value for `N=c1n(CCCOc2ccc(F)cc2)c2ccccc2n1Cc1cccc(N2CCN(Cc3ccccc3-c3ccc(Cl)cc3)CC2)c1` [Compound 27, 1-{3-[4-(4′-Chloro-biphenyl-2-ylmethyl)-piperazin-1-yl]-benzyl}-3-[3-(4-fluoro-phenoxy)-propyl]-1,3-dihydro-benzoimidazol-2-ylideneamine] was below 10 µM.

Regarding `N=c1n(CCCOc2ccccc2)c2ccccc2n1Cc1cccc(N2CCN(Cc3ccccc3-c3ccccc3)CC2)c1` [Compound 29, 1-[3-(4-Biphenyl-2-ylmethyl-piperazin-1-yl)-benzyl]-3-(3-phenoxy-propyl)-1,3-dihydro-benzoimidazol-2-ylideneamine], the IC50 was below 10 µM. The same measure for `COC(=O)c1ccc(OCCCn2c(=N)n(Cc3ccc(Br)cc3)c3ccccc32)cc1` [Compound 66, 4-{3-[3-(4-Bromo-benzyl)-2-imino-2,3-dihydro-benzoimidazol-1-yl]-propoxy}-benzoic acid methyl ester]: 11 to 100 µM; for `Cc1ccc2c(c1)n(Cc1ccc(Br)cc1)c(=N)n2CCCOc1ccc(F)cc1` [Compound 58, 3-(4-Bromo-benzyl)-1-[3-(4-fluoro-phenoxy)-propyl]-5-methyl-1,3-dihydro-benzoimidazol-2-ylideneamine]: 11 to 100 µM; for `CCOC(=O)c1cccc(OCCCn2c(=N)n(Cc3ccc(Br)cc3)c3ccccc32)c1` [Compound 65, 3-{3-[3-(4-Bromo-benzyl)-2-imino-2,3-dihydro-benzoimidazol-1-yl]-propoxy}-benzoic acid ethyl ester]: 11 to 100 µM. The same measure for `N=c1n(Cc2ccc(Br)cc2)c2ccccc2n1CC(O)COc1ccc(F)cc1` (stereo not shown) [Compound 77, 1-[3-(4-Bromo-benzyl)-2-imino-2,3-dihydro-benzoimidazol-1-yl]-3-(4-fluoro-phenoxy)-propan-2-ol]: below 10 µM; for `Cc1ccccc1Cn1c(=N)n(CCCOc2ccccc2)c2ccccc21` [Compound 94, 1-(2-Methyl-benzyl)-3-(3-phenoxy-propyl)-1,3-dihydro-benzoimidazol-2-ylideneamine]: 11 to 100 µM; for `N=c1n(CCCOc2ccc(F)cc2)c2ccccc2n1Cc1ccc(N2CCN(Cc3ccc(Cl)cc3)CC2)cc1` [Compound 19, 1-{4-[4-(4-Chloro-benzyl)-piperazin-1-yl]-benzyl}-3-[3-(4-fluoro-phenoxy)-propyl]-1,3-dihydro-benzoimidazol-2-ylideneamine]: 11 to 100 µM. As to `CCOC(=O)c1cccc(OCCCn2c(=N)n(Cc3ccc(N4CCN(Cc5ccccc5-c5ccc(Cl)cc5)CC4)cc3)c3ccccc32)c1` [Compound 73, 3-[3-(3-{4-[4-(4′-Chloro-biphenyl-2-ylmethyl)-piperazin-1-yl]-benzyl}-2-imino-2,3-dihydro-benzoimidazol-1-yl)-propoxy]-benzoic acid ethyl ester], the 50% inhibitory concentration (IC50) was below 10 µM. The same measure for `N=c1n(CCCOc2ccc(Cl)cc2)c2ccccc2n1Cc1ccc(Br)cc1` [Compound 12, 1-(4-Bromo-benzyl)-3-[3-(4-chloro-phenoxy)-propyl]-1,3-dihydro-benzoimidazol-2-ylideneamine]: 11 to 100 µM; for `N=c1n(Cc2ccc(Cl)cc2)c2ccccc2n1CC(O)COc1ccc(Cl)cc1` (stereo not shown) [Compound 105, 1-[3-(4-Chloro-benzyl)-2-imino-2,3-dihydro-benzoimidazol-1-yl]-3-(4-chloro-phenoxy)-propan-2-ol]: 11 to 100 µM; for `N=c1n(Cc2ccccc2)c2ccccc2n1Cc1ccccn1` [Compound 1, 1-Benzyl-3-pyridin-2-ylmethyl-1,3-dihydro-benzoimidazol-2-ylideneamine]: 11 to 100 µM. The same measure for `N=c1n(CCCOc2ccc(F)cc2)c2ccccc2n1Cc1cccc(Cl)c1` [Compound 10, 1-(3-Chloro-benzyl)-3-[3-(4-fluoro-phenoxy)-propyl]-1,3-dihydro-benzoimidazol-2-ylideneamine]: 11 to 100 µM.
